Measurements taken from patent US20260256925A1, “INDAZOLE DERIVATIVES AS ESTROGEN RECEPTOR DEGRADERS” (REGENTS OF THE UNIVERSITY OF MICHIGAN, priority 2022, published 2026).

Assays:
[1] = target: T1, ER (Homo sapiens, UniProt P03372); assay: In-cell western blot analysis, relative ER percentage (compounds B1-B126); format: cell-based; settings: ER degradation, 16 hours, read-out: ICW DC50
T1 construct: endogenous in cells; probably T47D or MCF-7
T1 sequence (P03372 1-595): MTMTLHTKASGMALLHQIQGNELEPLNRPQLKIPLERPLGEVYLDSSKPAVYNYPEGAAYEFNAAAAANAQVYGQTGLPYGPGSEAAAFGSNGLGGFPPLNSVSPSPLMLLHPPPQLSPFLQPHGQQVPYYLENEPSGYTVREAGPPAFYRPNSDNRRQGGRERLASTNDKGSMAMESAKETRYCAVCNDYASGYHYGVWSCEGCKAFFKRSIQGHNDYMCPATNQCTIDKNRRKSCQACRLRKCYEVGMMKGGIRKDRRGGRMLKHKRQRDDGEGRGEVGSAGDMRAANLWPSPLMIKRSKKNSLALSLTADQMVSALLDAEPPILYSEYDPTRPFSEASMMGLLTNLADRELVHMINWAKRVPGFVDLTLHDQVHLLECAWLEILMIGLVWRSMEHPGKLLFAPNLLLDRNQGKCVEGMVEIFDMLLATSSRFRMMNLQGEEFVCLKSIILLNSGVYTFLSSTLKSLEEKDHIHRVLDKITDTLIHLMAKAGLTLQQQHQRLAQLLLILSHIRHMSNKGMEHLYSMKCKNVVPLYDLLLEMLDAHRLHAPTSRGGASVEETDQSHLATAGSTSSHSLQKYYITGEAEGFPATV
How it was run: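 Readout was a two-colour infrared in-cell western of formaldehyde-fixed cells after 16 h compound exposure at 0.5% DMSO, with 40,000 or 10,000 cells/well plated the previous night. Relative ER percentage compares treated wells against untreated/DMSO-treated wells taken as 100%.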

[2] = Cell growth assay, WST-8 (compounds B1-B126); format: cell-based; settings: 96 h; T47D cell line, WST-8, 4 days; read-out: Cell growth inhibition in T47D cell line IC50
How it was run: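 Read-out is WST-8 absorbance at 450 nm (2.5 h, 37° C) as a fraction of vehicle control, from three separate repeats. Compound exposure lasted 4 days, starting one day after plating 1500 cells/well.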

Row | SMILES | DC50 [1] [nM] | IC50 [2] [nM]
1 | C[C@@H]1Cc2c(ccc3[nH]ncc23)[C@@H](c2c(F)cc(N3CC4(CCN(C(=O)CN5CCN6c7cc8c(cc7OC[C@@H]6C5)C(=O)N(C5CCC(=O)NC5=O)C8)CC4)C3)cc2F)N1CC(F)F (stereo partly drawn) [Compound B22, 3-((S)-3-(2-(2-(4-((6S,8R)-7-(2,2-difluoroethyl)-8-methyl-6,7,8,9-tetrahydro-3H-pyrazolo[4,3-f]isoquinolin-6-yl)-3,5-difluorophenyl)-2,7-diazaspiro[3.5]nonan-7-yl)-2-oxoethyl)-8-oxo-1,2,3,4,4a,5,8,10-octahydro-9H-pyrazino[1′,2′:4,5][1,4]oxazino[2,3-f]isoindol-9-yl)piperidine-2,6-dione] | < 10 | < 1
2 | C[C@@H]1Cc2c(ccc3[nH]ncc23)[C@@H](c2c(F)cc(N3CCC(CN4CCN5c6cc7c(cc6N(C)C[C@@H]5C4)C(=O)N(C4CCC(=O)NC4=O)C7)CC3)cc2F)N1CC(F)F (stereo partly drawn) [Compound B29, 3-((S)-3-((1-(4-((6S,8R)-7-(2,2-difluoroethyl)-8-methyl-6,7,8,9-tetrahydro-3H-pyrazolo[4,3-f]isoquinolin-6-yl)-3,5-difluorophenyl)piperidin-4-yl)methyl)-6-methyl-8-oxo-2,3,4,4a,5,6,8,10-octahydropyrazino[1,2-a]pyrrolo[3,4-g]quinoxalin-9(1H)-yl)piperidine-2,6-dione] | < 10 | < 1
3 | C[C@@H]1Cc2c(ccc3[nH]ncc23)[C@@H](c2ccc(N3CCC4(CC3)CN(C(=O)CN3CCC5(CC3)COc3c5ccc5c3CN(C3CCC(=O)NC3=O)C5=O)C4)cn2)N1CC(F)(F)F (stereo partly drawn) [Compound B78, 3-(1′-(2-(7-(6-((6S,8R)-8-methyl-7-(2,2,2-trifluoroethyl)-6,7,8,9-tetrahydro-3H-pyrazolo[4,3-f]isoquinolin-6-yl)pyridin-3-yl)-2,7-diazaspiro[3.5]nonan-2-yl)-2-oxoethyl)-6-oxo-6,8-dihydro-2H,7H-spiro[furo[2,3-e]isoindole-3,4′-piperidin]-7-yl)piperidine-2,6-dione] | < 10 | < 1
4 | C[C@@H]1Cc2c(ccc3[nH]ncc23)[C@@H](c2c(F)cc(NC3CN(C(=O)CN4CCN5c6cc7c(cc6OC[C@@H]5C4)C(=O)N(C4CCC(=O)NC4=O)C7)C3)cc2F)N1CC(F)F (stereo partly drawn) [Compound B26, 3-((S)-3-(2-(3-((4-((6S,8R)-7-(2,2-difluoroethyl)-8-methyl-6,7,8,9-tetrahydro-3H-pyrazolo[4,3-f]isoquinolin-6-yl)-3,5-difluorophenyl)amino)azetidin-1-yl)-2-oxoethyl)-8-oxo-1,2,3,4,4a,5,8,10-octahydro-9H-pyrazino[1′,2′:4,5][1,4]oxazino[2,3-f]isoindol-9-yl)piperidine-2,6-dione] | < 10 | < 1
5 | C[C@@H]1Cc2c(ccc3[nH]ncc23)[C@@H](c2ccc(N3CCC4(CC3)CC(CN3CCC5(CC3)COc3c5ccc5c3CN(C3CCC(=O)NC3=O)C5=O)CO4)cn2)N1CC(F)(F)F (stereo partly drawn) [Compound B95, 3-(1′-((8-(6-((6S,8R)-8-methyl-7-(2,2,2-trifluoroethyl)-6,7,8,9-tetrahydro-3H-pyrazolo[4,3-f]isoquinolin-6-yl)pyridin-3-yl)-1-oxa-8-azaspiro[4.5]decan-3-yl)methyl)-6-oxo-6,8-dihydro-2H,7H-spiro[furo[2,3-e]isoindole-3,4′-piperidin]-7-yl)piperidine-2,6-dione] | > 100 | < 1
6 | C[C@@H]1Cc2c(ccc3[nH]ncc23)[C@@H](c2ccc(N3CCC(CN4CCC5(CC4)COc4c5ccc5c4CN(C4CCC(=O)NC4=O)C5=O)CC3)cn2)N1CC(F)(F)F (stereo partly drawn) [Compound B62, 3-(1′-((1-(6-((6S,8R)-8-methyl-7-(2,2,2-trifluoroethyl)-6,7,8,9-tetrahydro-3H-pyrazolo[4,3-f]isoquinolin-6-yl)pyridin-3-yl)piperidin-4-yl)methyl)-6-oxo-6,8-dihydro-2H,7H-spiro[furo[2,3-e]isoindole-3,4′-piperidin]-7-yl)piperidine-2,6-dione] | > 100 | < 1

More lines, main results first:

Row | DC50 [1] [nM] | SMILES | IC50 [2] [nM]
7 | 10 to 100 | C[C@@H]1Cc2c(ccc3[nH]ncc23)[C@@H](c2ccc(N3CCC4(CC3)CC(CN3CCN5c6ccc7c(c6OC[C@@H]5C3)CN(C3CCC(=O)NC3=O)C7=O)C4)cn2)N1CC(F)(F)F (stereo partly drawn) [Compound B107, 3-((S)-7-((7-(6-((6S,8R)-8-methyl-7-(2,2,2-trifluoroethyl)-6,7,8,9-tetrahydro-3H-pyrazolo[4,3-f]isoquinolin-6-yl)pyridin-3-yl)-7-azaspiro[3.5]nonan-2-yl)methyl)-1-oxo-1,3,5,5a,6,7,8,9-octahydro-2H-pyrazino[1′,2′:4,5][1,4]oxazino[2,3-e]isoindol-2-yl)piperidine-2,6-dione] | < 1
8 | < 10 | C[C@@H]1Cc2c(ccc3[nH]ncc23)[C@@H](c2ccc(N3CCC(CN4CCN(c5ccc6c(c5)CN(C5CCC(=O)NC5=O)C6=O)CC4)CC3)cn2)N1CC(F)(F)F (stereo partly drawn) [Compound B63, 3-(5-(4-((1-(6-((6S,8R)-8-methyl-7-(2,2,2-trifluoroethyl)-6,7,8,9-tetrahydro-3H-pyrazolo[4,3-f]isoquinolin-6-yl)pyridin-3-yl)piperidin-4-yl)methyl)piperazin-1-yl)-1-oxoisoindolin-2-yl)piperidine-2,6-dione] | < 1
9 | < 10 | C[C@@H]1Cc2c(ccc3[nH]ncc23)[C@@H](c2ccc(N3CC4(CC(CN5CCN6c7ccc8c(c7OC[C@H]6C5)CN(C5CCC(=O)NC5=O)C8=O)CO4)C3)cn2)N1CC(F)(F)F (stereo partly drawn) [Compound B96, 3-((5aR)-7-((2-(6-((6S,8R)-8-methyl-7-(2,2,2-trifluoroethyl)-6,7,8,9-tetrahydro-3H-pyrazolo[4,3-f]isoquinolin-6-yl)pyridin-3-yl)-5-oxa-2-azaspiro[3.4]octan-7-yl)methyl)-1-oxo-1,3,5,5a,6,7,8,9-octahydro-2H-pyrazino[1′,2′:4,5][1,4]oxazino[2,3-e]isoindol-2-yl)piperidine-2,6-dione] | < 1
10 | < 10 | C[C@@H]1Cc2c(ccc3[nH]ncc23)[C@@H](c2ccc(N3CC4(CCC(CN5CCN6c7ccc8c(c7OC[C@H]6C5)CN(C5CCC(=O)NC5=O)C8=O)CC4)C3)cn2)N1CC(F)F (stereo partly drawn) [Compound B86, 3-((R)-7-((2-(6-((6S,8R)-7-(2,2-difluoroethyl)-8-methyl-6,7,8,9-tetrahydro-3H-pyrazolo[4,3-f]isoquinolin-6-yl)pyridin-3-yl)-2-azaspiro[3.5]nonan-7-yl)mcthyl)-1-oxo-1,3,5,5a,6,7,8,9-octahydro-2H-pyrazino[1′,2′:4,5][1,4]oxazino[2,3-e]isoindol-2-yl)piperidine-2,6-dione] | 1 to 10
11 | < 10 | C[C@@H]1Cc2c(ccc3[nH]ncc23)[C@@H](c2cnc(N3CCC4(CCC(CN5CCN6c7ccc8c(c7OC[C@H]6C5)CN([C@H]5CCC(=O)NC5=O)C8=O)CO4)CC3)nc2)N1CC(F)(F)F (stereo partly drawn) [Compound B125, (3S)-3-((5aR)-7-((9-(5-((6S,8R)-8-methyl-7-(2,2,2-trifluoroethyl)-6,7,8,9-tetrahydro-3H-pyrazolo[4,3-f]isoquinolin-6-yl)pyrimidin-2-yl)-1-oxa-9-azaspiro[5.5]undecan-3-yl)methyl)-1-oxo-1,3,5,5a,6,7,8,9-octahydro-2H-pyrazino[1′,2′:4,5][1,4]oxazino[2,3-e]isoindol-2-yl)piperidine-2,6-dione] | < 1
12 | < 10 | C[C@@H]1Cc2c(ccc3[nH]ncc23)[C@@H](c2c(F)cc(N3CCN(CC(=O)N4CCN5c6cc7c(cc6OC[C@@H]5C4)C(=O)N(C4CCC(=O)NC4=O)C7)CC3)cc2F)N1CC(F)F (stereo partly drawn) [Compound B32, 3-((S)-3-(2-(4-(4-((6S,8R)-7-(2,2-difluoroethyl)-8-methyl-6,7,8,9-tetrahydro-3H-pyrazolo[4,3-f]isoquinolin-6-yl)-3,5-difluorophenyl)pipcrazin-1-yl)acetyl)-8-oxo-1,2,3,4,4a,5,8,10-octahydro-9H-pyrazino[1′,2′:4,5][1,4]oxazino[2,3-f]isoindol-9-yl)piperidine-2,6-dione] | < 1
13 | 10 to 100 | C[C@@H]1Cc2c(ccc3[nH]ncc23)[C@@H](c2ccc(N3CCC4(CC3)CC(CN3CCN5c6cc7c(cc6OC[C@@H]5C3)C(=O)N(C3CCC(=O)NC3=O)C7)C4)cn2)N1CC(F)(F)F (stereo partly drawn) [Compound B77, 3-((S)-3-((7-(6-((6S,8R)-8-methyl-7-(2,2,2-trifluoroethyl)-6,7,8,9-tetrahydro-3H-pyrazolo[4,3-f]isoquinolin-6-yl)pyridin-3-yl)-7-azaspiro[3.5]nonan-2-yl)methyl)-8-oxo-1,2,3,4,4a,5,8,10-octahydro-9H-pyrazino[1′,2′:4,5][1,4]oxazino[2,3-f]isoindol-9-yl)piperidine-2,6-dione] | 1 to 10
